Where two headings read alike, the source gives them in different places.
Legend:
HIV-1 (strain IIIB) = experiment: microbe, parasite or virus in culture; type: cell-based; details: lower line of each compound's entry, read-out: IC50 (MT-4 cells)
HIV-1 protease = HIV-1 protease (Human immunodeficiency virus type 1 group M subtype B, UniProt P04585); experiment: biochemical
[1] = Human immunodeficiency virus 1, IIIB, MT4, 120 h, […]
[2] = Human immunodeficiency virus 1, 120 h, MT4 cells infected with HIV-1 strain IIIB, 5 days
[3] = HIV-1 protease, upper line of each compound's entry, read-out: Ki (enzyme)

Row | Structure (SMILES) | IC50 (HIV-1 (strain IIIB); [1]) | Ki (HIV-1 protease) | IC50 (HIV-1 (strain IIIB); [2]) | Ki (HIV-1 protease; [3])
1 | COc1ccc(S(=O)(=O)N(C[C@@H](O)[C@H](Cc2ccccc2)NC(=O)[C@H](CC(N)=O)NC(=O)c2ccc3ccccc3n2)OC2CCCCC2)cc1 [Compound 66] | ≤ 100 nM | < 1 nM | – | –
2 | CCC(C)ON(C[C@@H](O)[C@H](Cc1ccccc1)NC(=O)OC1CCOC1)S(=O)(=O)c1ccc(OC)cc1 (stereo partly drawn) [Compound 67, (3S)tetrahydro-3-furanyl N-((1S,2R)-1-benzyl-3-sec-butoxy[(4-methoxyphenyl)sulf-onyl]amino-2-hydroxypropyl)carbamate] | – | – | 100 to 500 nM | < 1 nM
3 | CCC(C)ON(C[C@@H](O)[C@H](Cc1ccccc1)NC(=O)OC1CO[C@H]2OCC[C@@H]12)S(=O)(=O)c1ccc(OC)cc1 (stereo partly drawn) [Compound 68, (3R,3aS,6aR)hexahydrofuro[2,3-b]furan-3-yl N-((1S,2R)-1-benzyl-3-sec-butoxy[(4-methoxyphenyl)sulfonyl]amino-2-hydroxypropyl)carbamate] | – | – | ≤ 100 nM | < 1 nM
4 | CCC(C)ON(C[C@@H](O)[C@H](Cc1ccccc1)NC(=O)OC1COCOC1)S(=O)(=O)c1ccc(OC)cc1 (stereo partly drawn) [Compound 69, 1,3-dioxan-5-yl N-((1S,2R)-1-benzyl-3-sec-butoxy[(4-methoxyphenyl)sulfonyl]amino-2-hydroxypropyl)carbamate] | – | – | 100 to 500 nM | < 1 nM
5 | CCC(C)ON(C[C@@H](O)[C@H](Cc1ccccc1)NC(=O)c1cccc(O)c1C)S(=O)(=O)c1ccc(OC)cc1 (stereo partly shown) [Compound 70] | – | – | > 500 nM | < 1 nM
6 | CCC(C)ON(C[C@@H](O)[C@H](Cc1ccccc1)NC(=O)[C@H](CC(N)=O)NC(=O)c1ccc2ccccc2n1)S(=O)(=O)c1ccc(OC)cc1 (stereo partly shown) [Compound 71] | ≤ 100 nM | – | – | < 1 nM
7 | COc1ccc(S(=O)(=O)N(C[C@@H](O)[C@H](Cc2ccccc2)NC(=O)O[C@H]2CCOC2)OC2CCOCC2)cc1 [Compound 72, (3S)tetrahydro-3-furanyl N-(1S,2R)-1-benzyl-2-hydroxy-3-[[(4-methoxyphenyl)sulfonyl](tetrahydro-2H-pyran-4-yloxy)amino]propylcarbamate] | – | – | 500 to 1000 nM | 1 to 10 nM
8 | COc1ccc(S(=O)(=O)N(C[C@@H](O)[C@H](Cc2ccccc2)NC(=O)OC2CO[C@H]3OCC[C@@H]23)OC2CCOCC2)cc1 (stereo partly drawn) [Compound 73, (3R,3aS,6aR)hexahydrofuro[2,3-b]furan-3-yl N-(1S,2R)-1-benzyl-2-hydroxy-3-[[(4-methoxyphenyl)sulfonyl](tetrahydro-2H -pyran-4-yloxy)amino]propylcarbamate] | – | – | ≤ 100 nM | < 1 nM
9 | COc1ccc(S(=O)(=O)N(C[C@@H](O)[C@H](Cc2ccccc2)NC(=O)OC2COCOC2)OC2CCOCC2)cc1 [Compound 74, 1,3-dioxan-5-yl N-(1S,2R)-1-benzyl-2-hydroxy-3-[[(4-methoxyphenyl)sulfonyl](tetrahydro-2H-pyran-4-yloxy)amino]propylcarbamate] | – | – | ≤ 100 nM | < 1 nM
10 | COc1ccc(S(=O)(=O)N(C[C@@H](O)[C@H](Cc2ccccc2)NC(=O)c2cccc(O)c2C)OC2CCOCC2)cc1 [Compound 75, N-(1S,2R)-1-benzyl-2-hydroxy-3-[[(4-methoxyphenyl)sulfonyl](tetrahydro-2H-pyran-4-yloxy)amino]propyl-3-hydroxy-2-methylbenzamide] | – | – | > 500 nM | < 1 nM
11 | COc1ccc(S(=O)(=O)N(C[C@@H](O)[C@H](Cc2ccccc2)NC(=O)[C@H](CC(N)=O)NC(=O)c2ccc3ccccc3n2)OC2CCOCC2)cc1 [Compound 76, (2S)-N-(1S,2R)-1-benzyl-2-hydroxy-3-[[(4-methoxyphenyl)sulfonyl](tetrahydro-2H-pyran-4-yloxy)amino]propyl-2-[(2-quinolinylcarbonyl)amino]butanediamide] | 100 to 500 nM | – | – | < 1 nM

Reference: patent US20040097594A1 (priority 1998, published 2004)
